In US12459908B2, “Alpha, beta unsaturated methacrylic esters with anti-inflammatory properties” (Sitryx Therapeutics Limited, priority 2020, dated 2025):

How the values were obtained:
IL-1β = experiment: THP-1 AlphaLISA IL-1β cytokine inhibition assay (differentiated THP-1 cells); assay type: cell-based; conditions: Homo sapiens, LPS 24 hr then Nigericin 1 hour
Method: Biological Example 1—THP-1 AlphaLISA IL-1β
Measuring Inhibitory Effects on IL-1, Cytokine Output from THP-1s
The cytokine inhibition profiles of compounds of formula (I) were determined in a differentiated THP-1 cell assay. All assays were performed in RPMI-1640 growth medium (Gibco), supplemented with 10% fetal bovine serum (FBS; Gibco), 1% penicillin-streptomycin and 1% sodium pyruvate unless specified otherwise. The IL-1p cytokine inhibition assay was run in a background of differentiated THP-1 cells as described below. All reagents described were from Sigma-Aldrich unless specified otherwise. Compounds were prepared as 10 mM DMSO stocks.
THP-1 cells were expanded as a suspension up to 80% confluence in appropriate growth medium. Cells were harvested, suspended, and treated with an appropriate concentration of phorbol 12-myristate 13-acetate (PMA) over a 72 hr period (37° C./5% CO2).
Following 72 hrs of THP-1 cell incubation, cellular medium was removed and replaced with fresh growth media containing 1% of FBS. Working concentrations of compounds were prepared separately in 10% FBS treated growth medium and pre-incubated with the cells for 30 minutes (37° C./5% CO2). Following the 30 minute compound pre-incubation, THP-1s were treated with an appropriate concentration of LPS and the cells were subsequently incubated for a 24 hr period (37° C./5% CO2). An appropriate final concentration of Nigericin was then dispensed into the THP-1 plates and incubated for 1 hour (37° C./5% CO2) before THP-1 supernatants were harvested and collected in separate polypropylene 96-well holding plates.
Reagents from an IL-1β and IL-6 commercial kit (Perkin Elmer) were prepared and run according to the manufacturer's instructions. Subsequently, fluorescence signal detection in a microplate reader was measured (EnVision® Multilabel Reader, Perkin Elmer).
Percentage inhibition was calculated per cytokine by normalising the sample data to the high and low controls used within each plate (+/−LPS respectively). Percentage inhibition was then plotted against compound concentration and the 50% inhibitory concentration (IC50) was determined from the resultant concentration-response curve.

[1] = Hepatocyte stability assay, human cryopreserved hepatocytes; assay type: in vitro ADME; conditions: cryopreserved hepatocytes, Human hepatocytes, 10 μM, 60 min, read-out: T½
Text: (§1) Biological Example 3—Hepatocyte Stability Assay
(§2) Defrosted cryo-preserved hepatocytes (viability >70%) were used to determine the metabolic stability of a compound via calculation of intrinsic clearance (CIint; a measure of the removal of a compound from the liver in the absence of blood flow and cell binding). Clearance data are particularly important for in vitro work as they can be used in combination with in vivo data to predict the half-life and oral bioavailability of a drug.
(§3) The metabolic stability in hepatocytes assay involves a time-dependent reaction using both positive and negative controls. The cells were pre-incubated at 37° C. and spiked with test compound (and positive control); samples taken at pre-determined time intervals were analysed to monitor the change in concentration of the initial drug compound over 60 minutes. A buffer incubation reaction (with no hepatocytes present) acted as a negative control and two cocktail solutions, containing compounds with known high and low clearance values (verapamil/7-hydroxycoumarin and propranolol/diltiazem), acted as positive controls. • 1. The assay was run with a cell concentration of 0.5×10^6 cells/mL in Leibovitz buffer. • 2. All compounds and controls were run in duplicate. • 3. Compound concentration was 10 μM. • 4. All compounds and controls were incubated with both cells and buffer to show turnover was due to hepatic metabolism. • 5. All wells on the incubation plate had 326.7 μL of either cells or buffer added. • 6. Prior to assay, cell and buffer-only incubation plates were preincubated for 10 mins at 37° C. • 7. The assay was initiated by adding compounds, 3.3 μL of 1 mM in 10% DMSO-90% Buffer; final DMSO concentration is 0.1%. • 8. Samples were taken at regular timepoints (0, 5, 10, 20, 40, 60 min) until 60 mins. • 9. Sample volume was 40 μL and was added to 160 μL of crash solvent (acetonitrile with internal standard) and stored on ice. • 10. At the end of the assay, the crash plates were centrifuged at 3500 rpm for 20 mins at 4° C. • 11. 80 μL of clear supernatant was removed and mixed with 80 μL of deionised water before being analysed by LC-MS/MS.
(§4) Raw LC-MS/MS data was exported to, and analysed in, Microsoft Excel for determination of intrinsic clearance. The percentage remaining of a compound was monitored using the peak area of the initial concentration as 100%. Intrinsic clearance and half-life values were calculated using a graph of the natural log of percentage remaining versus the time of reaction in minutes. Half-life (min) and intrinsic clearance (CIint in μL min^−1 10^−6 cells) values were calculated using the gradient of the graph (the elimination rate constant, k) and Equations 1 and 2.

[2] = test system: cryo-preserved hepatocytes; experiment: as above; assay type: in vitro ADME; conditions: for Clint: Human hepatocytes, 10 μM, 60 min, numeric values
Text: as §1, §2, §3, §4

[3] = Hepatocyte stability assay, mouse cryopreserved hepatocytes; assay type: in vitro ADME; conditions: cryopreserved hepatocytes, Mouse hepatocytes, 10 μM, 60 min, read-out: T½
Text: as §1, §2, §3, §4

[4] = test system: cryo-preserved hepatocytes; experiment: as above; assay type: in vitro ADME; conditions: for Clint: Mouse hepatocytes, 10 μM, 60 min
Text: as §1, §2, §3, §4

NRF2 = NRF2 activation assay (DiscoverX PathHunter NRF2 translocation kit, U2OS cells); assay type: cell-based; conditions: Homo sapiens, 6 hours; for Emax: normalised to DMF high control
Method: Biological Example 2—NRF2 Activation Assay
Measuring Compound Activation Effects on the Anti-Inflammatory Transcription Factor NRF2 in DiscoverX PathHunter NRF2 Translocation Kit
Potency and efficacy of compounds of formula (I) against the target of interest to activate NRF2 (nuclear factor erythroid 2-related factor 2) were determined using the PathHunter NRF2 translocation kit (DiscoverX). The NRF2 translocation assay was run using an engineered recombinant cell line, utilising enzyme fragment complementation to determine activation of the Keap1-NRF2 protein complex and subsequent translocation of NRF2 into the nucleus. Enzyme activity was quantified using a chemiluminescent substrate consumed following the formation of a functional enzyme upon PK-tagged NRF2 translocation into the nucleus.
Additionally, a defined concentration of DMF was used as the ‘High’ control to normalise test compound activation responses to.
U2OS PathHunter eXpress cells were thawed from frozen prior to plating. Following plating, U2OS cells were incubated for 24 hrs (37° C./5% CO2) in commercial kit provided cell medium.
Following 24 hrs of incubation, plated U2OS cells were directly treated with an appropriate final concentration of compound. […]
Following compound treatment, the U2OS plates were incubated for a further 6 hours (37° C./5% CO2) before detection reagent from the PathHunter NRF2 commercial kit was prepared and added to test plates according to the manufacturer's instructions. Subsequently, the luminescence signal detection was measured in a microplate reader (PHERAstar®, BMG Labtech).
Percentage activation was calculated by normalising the sample data to the high and low controls used within each plate (+/−DMF). Percentage activation/response was then plotted against compound concentration and the 50% activation concentration ([…]) was determined from the plotted concentration-response curve.

[5] = compared to 4-octyl itaconate, ethyl 2-(2-chlorobenzyl)acrylate and 2-(2-chlorobenzyl)acrylic acid

IC50 (IL-1β; numeric values) [µM] | half-life at 10 μM ([1]; numeric values) [min] | Clint [2] [μL min^−1 10^−6 cells] | half-life at 10 μM ([3]; numeric values) [min] | Clint ([4]; numeric values) [μL min^−1 10^−6 cells] | EC50 (NRF2; numeric values) [µM] | IC50 (IL-1β; class symbols) [µM] | half-life at 10 μM ([1]; class symbols) [min] | Stability in human hepatocytes compared to comparators [2, 5] | half-life at 10 μM ([3]; class symbols) [min] | Stability in mouse hepatocytes compared to comparators [4, 5] | EC50 (NRF2; class symbols) [µM] | SMILES | Emax (NRF2; numeric values) [%] | Clint ([4]; class symbols) | Emax (NRF2; class symbols) [%]
> 100 | 59 | 21 | 11 | 95 | > 100 | – | – | – | – | – | – | C=C(Cc1ccccc1Cl)C(=O)O [2-(2-chlorobenzyl)acrylic acid, reference compound] | 2 | – | –
– | – | – | – | – | – | 11 to 20 | > 100 | more stable | > 11 | more stable | 11 to 21 | C=C(Cc1nc(Cc2ccc(Cl)cc2)no1)C(=O)OCC(=O)O [Example 3, 2-((2-((3-(4-chlorobenzyl)-1,2,4-oxadiazol-5-yl)methyl)acryloyl)oxy)acetic acid] | – | +++ (For Clint (μL min^−1 10^−6 cells; mouse), +++ means <95) | 135 to 165
> 100 | < 3 | >460 | < 3 | >460 | – | – | – | – | – | – | – | C=C(Cc1ccccc1Cl)C(=O)OCC [ethyl 2-(2-chlorobenzyl)acrylate, reference compound] | – | – | –
